Test results reported in patent publication US10300091B2, “Sustained release angiogenesis modulating compositions and methods for induction and modulation of angiogenesis” (University of Florida Research Foundation, Inc., priority 2013, dated 2019).

System: HUVEC
Test: Screening of TSP-1 in hPE-based angiogenesis assay
Format: cell-based, human
Experimental: Unless otherwise stated, 32 μl of placental extract was thawed and pipetted into each well of a 96 well plate. The extract was evenly coated onto the bottom of each well using an orbital shaker at 30 RPM for 1 minute. The coated plate was then incubated at 37° C. for 30 minutes. HUVEC were then plating by direct pipetting at 20000 cells/cm^2, 40000 cells/cm^2, or 80000 cells/cm^2. Multiple time points were investigated at each concentration including at days 1, 3, and 5. Thrombospondin-1 was tested as an angiogenesis inhibiting drug using final concentrations 0, 5, 10, 20, and 35 μg/μL diluted in endothelial cell media
Network formation was analyzed after staining at a concentration of 2 μg/mL Calcein AM (Invitrogen-Life Technologies, NY, USA) with Endothelial cell culture media. In a dark room, dyed cells were incubated at 37° C., 5% CO2 for 30 minutes, and then images were taken using a Zeiss Axiovert 200 inverted Fluorescence microscope (Zeiss, Thornwood, N.Y.). Images were analyzed to determine the tubule length, tubule width, branch points, and other meshwork characterizations using ImageJ 1.45s (NIH, Bethesda, Md.). Branch points were assigned manually as the positions at every node where branches meet or tubules sprout, and tubule length was assessed by determining the curve length from branch point to connected branch point. Tubule width measurements were carried out in three different zones per tubule, with two zones each 10 μm from the start and end and one zone in the middle of the curve length. The percent area of coverage was determined by processing the images using the imageJ function “binary>>convert to mask” followed by measurement of the “mean.” In TSP-1 experiments, final values were normalized to no dose samples, calculated as the percentage of “1” values relative to the total count of pixel values, and given as “% area coverage”.

TSP-1: glycoprotein with potent inhibition activity on neovascularization; model anti-angiogenic drug
angiogenic network formation with TSP-1 (HUVEC on hPE treated plates, 1 d of culture): significantly reduced angiogenic network formation | total tubule-length and branch points as a function of TSP-1 concentration (hPE-coated plates, 0-35 μg/μL TSP-1): decrease linearly | effect of TSP-1 on control HUVECs (seeded directly onto uncoated tissue culture plates, 1 d): not affected
